Patent publication US7919529B2, “δ-amino-γ-hydroxy-ω-aryl-alkanoic acid amides” (Novartis AG, priority 2003, dated 2011)

Biological target: T1, Recombinant human renin (Homo sapiens, UniProt P00797)
T1 construct: made in house; host or cells: Chinese Hamster Ovary cells
T1 sequence (P00797 67-406): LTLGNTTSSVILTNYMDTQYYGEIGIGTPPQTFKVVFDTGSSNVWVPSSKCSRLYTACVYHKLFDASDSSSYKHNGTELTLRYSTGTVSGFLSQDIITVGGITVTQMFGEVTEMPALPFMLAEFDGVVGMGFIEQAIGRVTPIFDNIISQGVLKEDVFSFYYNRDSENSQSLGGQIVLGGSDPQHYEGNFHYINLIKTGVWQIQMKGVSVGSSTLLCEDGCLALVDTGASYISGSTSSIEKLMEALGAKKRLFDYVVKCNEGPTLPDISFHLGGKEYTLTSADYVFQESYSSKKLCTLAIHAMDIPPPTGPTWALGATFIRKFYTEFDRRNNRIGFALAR
Assay: FRET assay of renin inhibition
Format: biochemical
Method: Recombinant human renin (expressed in Chinese Hamster Ovary cells and purified using standard methods) at 4 nM concentration is incubated with test compound at various concentrations for 1 h at RT in 0.1 M Tris-HCl buffer, pH 7.4, containing 0.05 M NaCl, 0.5 mM EDTA and 0.05% CHAPS. Synthetic peptide substrate Arg-Glu(EDANS)-Ile-His-Pro-Phe-His-Leu-Val-Ile_His_Thr-Lys(DABCYL)-Arg9 is added to a final concentration of 2 μM and increase in fluorescence is recorded at an excitation wave-length of 340 nm and at an emission wave-length of 485 nm in a microplate spectro-fluorimeter. IC50 values are calculated from percentage of inhibition of renin activity as a function of test compound concentration (Fluorescence Resonance Energy Transfer, FRET, assay).

IC50: ~0.3 nM
SMILES: COCCCOc1cc(C[C@@H](C[C@H](N)[C@@H](O)C[C@H](C(=O)N[C@@H](C)C2CCCCC2)C(C)C)C(C)C)ccc1OC [Example 29, (2S,4S,5S,7S)-5-Amino-4-hydroxy-2-isopropyl-7-[4-methoxy-3-(3-methoxy-propoxy)-benzyl]-8-methyl-nonanoic acid ((S)-1-cyclohexyl-ethyl)-amide]
